Patent publication US9598421B2, “Imidazopyridazine compounds” (Pfizer Inc., priority 2014, dated 2017)
Structures can show the parent of a compound that is named as a salt.

Target: Human PDE4A (Homo sapiens (Human), UniProt P27815)
Assay: PDE4A Scintillation Proximity Assay (SPA), inhibition of enzyme activity
Assay type: biochemical
Details: human recombinant enzyme, 1 μM cAMP substrate, 30 min at 25° C., geometric mean of 2-9 determinations unless otherwise indicated, read-out: Human PDE4A FL
Description: The PDE4A3, PDE4B1, PDE4C1 and PDE4D3 assays use the Scintillation Proximity Assay (SPA) technology to measure the inhibition of human recombinant PDE4A1, PDE4B3, PDE4C1, and PDE4D3 enzyme activity by compounds in vitro. The PDE4A1, PDE4B3, PDE4C1, and PDE4D3 assays are run in parallel using identical parameters, except for the concentration of enzyme (80 pM PDE4A3, 40 pM PDE4B3, 40 pM PDE4C1 and 10 pM PDE4D). […] Reactions are incubated for 30 min at 25° C. The addition of 20 uL of 8 mg/ml yitrium silicate SPA beads (Perkin Elmer) stops the reaction. The plates are sealed (TopSeal, Perkin Elmer) and the beads are allowed to settle for 8 hrs, after which they are read on the Trilux Microbeta overnight.

Sequence of Human PDE4A (P27815 other isoform, or with tags, fused parts or gaps): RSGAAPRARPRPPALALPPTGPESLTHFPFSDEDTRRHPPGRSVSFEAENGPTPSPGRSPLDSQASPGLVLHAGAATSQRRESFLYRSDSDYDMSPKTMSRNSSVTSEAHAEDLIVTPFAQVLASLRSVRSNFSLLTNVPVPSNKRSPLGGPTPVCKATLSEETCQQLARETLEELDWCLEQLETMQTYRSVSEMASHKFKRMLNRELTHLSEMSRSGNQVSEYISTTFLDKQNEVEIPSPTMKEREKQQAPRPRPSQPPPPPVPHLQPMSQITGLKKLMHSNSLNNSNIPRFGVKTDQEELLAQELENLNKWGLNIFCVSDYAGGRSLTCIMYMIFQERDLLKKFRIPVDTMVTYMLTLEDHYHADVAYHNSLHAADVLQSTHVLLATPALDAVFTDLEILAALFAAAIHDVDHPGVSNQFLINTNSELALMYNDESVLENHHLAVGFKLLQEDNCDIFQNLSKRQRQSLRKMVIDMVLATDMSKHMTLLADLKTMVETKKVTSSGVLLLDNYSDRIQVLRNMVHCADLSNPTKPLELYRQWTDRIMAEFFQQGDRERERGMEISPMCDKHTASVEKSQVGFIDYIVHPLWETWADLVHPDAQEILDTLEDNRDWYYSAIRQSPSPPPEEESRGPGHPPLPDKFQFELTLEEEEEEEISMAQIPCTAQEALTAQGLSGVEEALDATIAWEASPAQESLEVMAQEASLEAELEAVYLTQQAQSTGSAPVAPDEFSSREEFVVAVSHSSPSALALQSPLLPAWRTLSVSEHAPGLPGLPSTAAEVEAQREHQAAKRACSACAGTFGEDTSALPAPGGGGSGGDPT

SMILES | IC50
Cc1cc(Cl)ccc1-c1c(C(=O)N2CCC2)nc2cccnn12 [Example 56, azetidin-1-yl[3-(4-chloro-2-methylphenyl)imidazo[1,2-b]pyridazin-2-yl]methanone] | 22.7 nM
CCCNC(=O)c1nc2cccnn2c1-c1cc(F)cc(Cl)c1 [Example 34, 3-(3-chloro-5-fluorophenyl)-N-propylimidazo[1,2-b]pyridazine-2-carboxamide] | 29.5 nM
Cc1ccc(-c2c(C(=O)N3CCC3)nc3cccnn23)cc1Cl [Example 49, azetidin-1-yl[3-(3-chloro-4-methylphenyl)imidazo[1,2-b]pyridazin-2-yl]methanone] | 4.16 nM
O=C(c1nc2cccnn2c1-c1cc(F)c(Cl)cc1F)N1CCC1 [Example 91, azetidin-1-yl[3-(4-chloro-2,5-difluorophenyl)imidazo[1,2-b]pyridazin-2-yl]methanone] | 12.6 nM
COc1ccc(-c2c(C(=O)N3CCC3)nc3cccnn23)c(F)c1 [Example 73, azetidin-1-yl[3-(2-fluoro-4-methoxyphenyl)imidazo[1,2-b]pyridazin-2-yl]methanone] | 165 nM
CCNC(=O)c1nc2cccnn2c1-c1ccc(Cl)c(F)c1 [Example 81, 3-(4-chloro-3-fluorophenyl)-N-ethylimidazo[1,2-b]pyridazine-2-carboxamide] | 7.86 nM
O=C(NC1CC1)c1nc2cccnn2c1-c1ccc2ncnn2c1 [Example 6, N-Cyclopropyl-3-([1,2,4]triazolo[1,5-a]pyridin-6-yl)imidazo[1,2-b]pyridazine-2-carboxamide] | 64.4 nM
O=C(c1nc2cccnn2c1-c1cccc(Cl)c1)N1CCC1 [Example 84, azetidin-1-yl[3-(3-chlorophenyl)imidazo[1,2-b]pyridazin-2-yl]methanone] | 16.7 nM
Cc1cc(-c2c(C(=O)NC3CC3)nc3cccnn23)c(F)cc1C#N [Example 17, 3-(4-cyano-2-fluoro-5-methylphenyl)-N-cyclopropylimidazo[1,2-b]pyridazine-2-carboxamide] | 89.9 nM
O=C(c1nc2cccnn2c1-c1cncc(Cl)c1)N1CCC1 [Example 15, azetidin-1-yl[3-(5-chloropyridin-3-yl)imidazo[1,2-b]pyridazin-2-yl]methanone] | 264 nM
O=C(N[C@@H]1C[C@@H]1F)c1nc2cccnn2c1-c1ccc(Cl)c(F)c1 [Example 45, 3-(4-chloro-3-fluorophenyl)-N-[(1R,2S)-2-fluorocyclopropyl]imidazo[1,2-b]pyridazine-2-carboxamide] | 2.91 nM
CN(C(=O)c1nc2cccnn2c1-c1ccc(Cl)c(F)c1)C1CC1 [Example 21, 3-(4-chloro-3-fluorophenyl)-N-cyclopropyl-N-methylimidazo[1,2-b]pyridazine-2-carboxamide] | 53.7 nM
O=C(Nc1ccn[nH]1)c1nc2cccnn2c1-c1ccc(Cl)cc1 [Example 103, 3-(4-chlorophenyl)-N-(1H-pyrazol-5-yl)imidazo[1,2-b]pyridazine-2-carboxamide] | 62.7 nM
Cc1cc(C#N)c(F)cc1-c1c(C(=O)NC2CC2)nc2cccnn12 [Example 19, 3-(4-cyano-5-fluoro-2-methylphenyl)-N-cyclopropylimidazo[1,2-b]pyridazine-2-carboxamide] | 16.9 nM
Cc1ccc(-c2c(C(=O)NC3CC3)nc3cccnn23)cc1F [Example 41, N-cyclopropyl-3-(3-fluoro-4-methylphenyl)imidazo[1,2-b]pyridazine-2-carboxamide] | 3.13 nM
Cc1cc(C#N)c(F)cc1-c1c(C(=O)NC(C)C)nc2cccnn12 [Example 99, 3-(4-cyano-5-fluoro-2-methylphenyl)-N-(propan-2-yl)imidazo[1,2-b]pyridazine-2-carboxamide] | 19.8 nM
O=C(Nc1cn[nH]c1)c1nc2cccnn2c1-c1ccc(Cl)c(F)c1 [Example 82, 3-(4-chloro-3-fluorophenyl)-N-(1H-pyrazol-4-yl)imidazo[1,2-b]pyridazine-2-carboxamide] | 12 nM
Cc1cc(Cl)c(F)cc1-c1c(C(=O)NC(C)C)nc2cccnn12 [Example 97, 3-(4-chloro-5-fluoro-2-methylphenyl)-N-(propan-2-yl)imidazo[1,2-b]pyridazine-2-carboxamide] | 5.48 nM
O=C(c1nc2cccnn2c1-c1ccc2c(c1)OC(F)(F)O2)N1CCC1 [Example 86, azetidin-1-yl[3-(2,2-difluoro-1,3-benzodioxol-5-yl)imidazo[1,2-b]pyridazin-2-yl]methanone] | 5.83 nM

Target: Human PDE4D (Homo sapiens (Human), UniProt Q08499)
Sequence (Q08499 186-808): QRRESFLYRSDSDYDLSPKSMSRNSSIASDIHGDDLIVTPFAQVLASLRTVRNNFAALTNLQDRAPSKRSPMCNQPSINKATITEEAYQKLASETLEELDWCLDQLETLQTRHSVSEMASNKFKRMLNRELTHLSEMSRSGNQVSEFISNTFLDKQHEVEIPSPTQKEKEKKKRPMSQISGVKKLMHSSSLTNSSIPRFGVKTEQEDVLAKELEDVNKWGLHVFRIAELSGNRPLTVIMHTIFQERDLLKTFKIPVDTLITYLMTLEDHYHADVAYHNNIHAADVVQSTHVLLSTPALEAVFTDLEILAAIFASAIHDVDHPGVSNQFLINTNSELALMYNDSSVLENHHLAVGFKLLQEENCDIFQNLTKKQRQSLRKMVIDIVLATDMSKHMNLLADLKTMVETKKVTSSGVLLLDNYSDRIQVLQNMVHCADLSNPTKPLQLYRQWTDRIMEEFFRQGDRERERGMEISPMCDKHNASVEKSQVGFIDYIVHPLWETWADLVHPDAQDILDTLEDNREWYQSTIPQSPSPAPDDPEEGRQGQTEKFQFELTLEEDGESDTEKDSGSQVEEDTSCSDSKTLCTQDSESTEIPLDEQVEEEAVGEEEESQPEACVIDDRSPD
Assay: PDE4D Scintillation Proximity Assay (SPA), inhibition of enzyme activity
Assay type: biochemical
Details: human recombinant enzyme, 1 μM cAMP substrate, 30 min at 25° C., geometric mean of 2-9 determinations unless otherwise indicated, read-out: Human PDE4D FL

SMILES | IC50
O=C(NC1CC1)c1nc2cccnn2c1-c1cnc2ccnn2c1 [Example 78, N-cyclopropyl-3-(pyrazolo[1,5-a]pyrimidin-6-yl)imidazo[1,2-b]pyridazine-2-carboxamide] | 6490 nM
O=C(NC1CC1)c1nc2cccnn2c1-c1cnc2ccoc2c1 [Example 38, N-cyclopropyl-3-(furo[3,2-b]pyridin-6-yl)imidazo[1,2-b]pyridazine-2-carboxamide] | 11200 nM
O=C(NC1CC1(F)F)c1nc2cccnn2c1-c1ccc(Cl)c(F)c1 (centres unmarked) [Example 44, 3-(4-chloro-3-fluorophenyl)-N-(2,2-difluorocyclopropyl)imidazo[1,2-b]pyridazine-2-carboxamide] | 320 nM
Cc1ccc(C#N)cc1-c1c(C(=O)NC2CC2)nc2cccnn12 [Example 80, 3-(5-cyano-2-methylphenyl)-N-cyclopropylimidazo[1,2-b]pyridazine-2-carboxamide] | > 25400 nM
Cc1cc(-c2c(C(=O)N3CCC3)nc3cccnn23)ccc1Cl [Example 51, azetidin-1-yl[3-(4-chloro-3-methylphenyl)imidazo[1,2-b]pyridazin-2-yl]methanone] | 2810 nM
O=C(c1nc2cccnn2c1-c1cnc2ccnn2c1)N1CCC1 [Example 74, azetidin-1-yl[3-(pyrazolo[1,5-a]pyrimidin-6-yl)imidazo[1,2-b]pyridazin-2-yl]methanone] | 10500 nM
Cc1ccc(Cl)cc1-c1c(C(=O)N2CCC2)nc2cccnn12 [Example 64, azetidin-1-yl[3-(5-chloro-2-methylphenyl)imidazo[1,2-b]pyridazin-2-yl]methanone] | 844 nM
O=C(c1nc2cccnn2c1-c1ccc2ncnn2c1)N1CCC1 [Example 16, azetidin-1-yl[3-([1,2,4]triazolo[1,5-a]pyridin-6-yl)imidazo[1,2-b]pyridazin-2-yl]methanone] | > 27500 nM
Cc1ccc(-c2c(C(=O)N[C@@H]3C[C@@H]3F)nc3cccnn23)c(F)c1 [Example 72, N-[(1R,2S)-2-fluorocyclopropyl]-3-(2-fluoro-4-methylphenyl)imidazo[1,2-b]pyridazine-2-carboxamide] | 6590 nM
O=C(c1nc2cccnn2c1-c1ccc(Cl)cc1Cl)N1CCC1 [Example 65, azetidin-1-yl[3-(2,4-dichlorophenyl)imidazo[1,2-b]pyridazin-2-yl]methanone] | 3720 nM
CC(C)NC(=O)c1nc2cccnn2c1-c1cc(F)c(Cl)cc1F [Example 100, 3-(4-chloro-2,5-difluorophenyl)-N-(propan-2-yl)imidazo[1,2-b]pyridazine-2-carboxamide] | 766 nM
CCNC(=O)c1nc2cccnn2c1-c1ccc(Cl)cc1C [Example 95, 3-(4-chloro-2-methylphenyl)-N-ethylimidazo[1,2-b]pyridazine-2-carboxamide] | 14800 nM
O=C(NC1CC1)c1nc2cccnn2c1-c1ccc(Cl)c(Cl)c1 [Example 11, N-cyclopropyl-3-(3,4-dichlorophenyl)imidazo[1,2-b]pyridazine-2-carboxamide] | 334 nM
O=C(c1nc2cccnn2c1-c1ccnc(C(F)(F)F)c1)N1CCC1 [Example 43, azetidin-1-yl{3-[2-(trifluoromethyl)pyridin-4-yl]imidazo[1,2-b]pyridazin-2-yl}methanone] | > 16900 nM
O=C(N[C@@H]1C[C@@H]1F)c1nc2cccnn2c1-c1cncc(Cl)c1 [Example 69, 3-(5-chloropyridin-3-yl)-N-[(1R,2S)-2-fluorocyclopropyl]imidazo[1,2-b]pyridazine-2-carboxamide] | 3330 nM

Same assay, conditions: read-out: Human PDE4D FL

SMILES | IC50
O=C(c1nc2cccnn2c1-c1ccc2c(c1)OCCO2)N1CCC1 [Example 67, azetidin-1-yl[3-(2,3-dihydro-1,4-benzodioxin-6-yl)imidazo[1,2-b]pyridazin-2-yl]methanone, formate salt] | 2260 nM
O=C(NCCc1ccccc1O)c1nc2cccnn2c1-c1ccc(Cl)cc1 [Example 57, 3-(4-chlorophenyl)-N-[2-(2-hydroxyphenyl)ethyl]imidazo[1,2-b]pyridazine-2-carboxamide, formate salt] | > 21800 nM
Cn1ncc(NC(=O)c2nc3cccnn3c2-c2ccc(Cl)cc2)n1 [Example 59, 3-(4-chlorophenyl)-N-(2-methyl-2H-1,2,3-triazol-4-yl)imidazo[1,2-b]pyridazine-2-carboxamide, trifluoroacetate salt] | 749 nM
Cc1cc(NC(=O)c2nc3cccnn3c2-c2ccc(Cl)cc2)no1 [Example 58, 3-(4-chlorophenyl)-N-(5-methyl-1,2-oxazol-3-yl)imidazo[1,2-b]pyridazine-2-carboxamide, trifluoroacetate salt] | 831 nM
CC(=O)c1ccc(F)c(-c2c(C(=O)N3CCC3)nc3cccnn23)c1 [Example 63, 1-[3-[2-(azetidin-1-ylcarbonyl)imidazo[1,2-b]pyridazin-3-yl]-4-fluorophenyl]ethanone, formate salt] | 394 nM
O=C(c1nc2cccnn2c1-c1ccc2nccnc2c1)N1CCC1 [Example 62, azetidin-1-yl[3-(quinoxalin-6-yl)imidazo[1,2-b]pyridazin-2-yl]methanone, formate salt] | 11000 nM
Cc1ccc(-c2c(C(=O)N3CCC3)nc3cccnn23)c(C)c1Cl [Example 66, azetidin-1-yl[3-(3-chloro-2,4-dimethylphenyl)imidazo[1,2-b]pyridazin-2-yl]methanone, formate salt] | 3390 nM
